According to patent publication US20160067246A1, “USE OF PHOSPHODIESTERASE 5A INHIBITORS FOR THE TREATMENT OF MUSCULAR DYSTROPHY” (CEDARS-SINAI MEDICAL CENTER, priority 2013, published 2016):

Key:
[1] = system: boys with Duchenne muscular dystrophy (DMD); test: Functional sympatholysis (LBNP, NIR spectroscopy, rest vs handgrip) with PDE5 inhibition in DMD; assay type: in vivo, human; conditions: DMD
Procedure: Forearm muscle oxygenation was measured with near-infrared (NIR) spectroscopy, as previously described.^4B Briefly, optodes were placed over the belly of the flexor digitorum profundus, the main muscle recruited during handgrip. The optodes were housed in a customized flexible rubber casing, ensuring a fixed and invariant position of the optodes relative to each other, and was secured to the skin with adhesive. The optodes were covered with an optically dense, black vinyl sheet, to minimize interference from external light or loss of NIR transmitted light. The forearm was wrapped with an elastic bandage to minimize movement of the optodes.
Before each experiment, absorption and scattering coefficients were calibrated against an external standard. After each experiment, a cuff was inflated on the upper arm to supra-systolic pressure of 200 mmHg to establish the total labile signal (TLS, the difference between the baseline and nadir in muscle tissue oxygenation). Changes in forearm tissue oxygenation were expressed as a percentage of TLS.
Handgrip exercise was performed with a dynamometer (Smedley Hand Dynamometer modified by Stoelting). To determine maximal voluntary contraction (MVC), each subject was asked to grip the dynamometer as hard as possible. […] Subjects performed intermittent isometric handgrip (20 handgrips per minute, 50% duty cycle) at 20% MVC for 7 minutes.
The subjects lower body was enclosed in a negative pressure chamber to the level of the iliac crest as previously described.^9B The pressure of the chamber was measured by a Statham transducer (Gould Inc.). Lower body negative pressure (LBNP) at −20 mmHg simulates mild orthostatic stress (that is, transition from the supine to the seated position). This technique mainly unloads the cardiopulmonary baroreceptors, producing highly reproducible reflex increases in sympathetic vasoconstrictor drive to the skeletal muscle vasculature without changing systemic blood pressure.^9B
The subjects' lower body was enclosed in a negative pressure chamber to the level of the iliac crest as previously described. The pressure in the chamber was measured by a Statham transducer (Gould Inc.). Lower body negative pressure (LBNP) at −20 to −30 mmHg simulates mild orthostatic stress caused by transition from the supine to the seated position. This technique mainly unloads the low-pressure cardiopulmonary baroreceptors, producing highly reproducible reflex increases in sympathetic vasoconstrictor drive to the skeletal muscle vasculature without changing systemic blood pressure. To measure exercise-induced attenuation of reflex vasoconstriction (i.e., functional sympatholysis), the LBNP was (i) applied at rest, and then (ii) superimposed on mild rhythmic handgrip at 20% MVC. Reflex vasoconstriction was measured as the LBNP-induced decrease in forearm muscle oxygenation by NIR spectroscopy. Using the pressure inside the LBNP chamber as a trigger, the Powerlab software was programed to mean the HbO2+MbO2 signal for 20 seconds before the onset of LBNP and for 20 seconds before the offset of LBNP; the difference between these mean values was taken as the LBNP-induced change in forearm muscle tissue oxygenation (20). Blood pressure, heart rate, and handgrip force were also recorded in response to 2 minutes of LBNP applied at rest and during the third to fifth minutes of the 7-minute exercise protocol.
Patients received 0.5 mg/kg of oral sildenafil or tadalafil on day 1, followed by 1.0 mg/kg of sildenafil or tadalafil on day 2. Patients then crossed over 2 weeks later for the opposite drug. Experiments were performed 1 hour (sildenafil) or 3 hours (tadalafil) after oral treatment to match the experiment with the peak blood level. Patients were queried about potential side-effects throughout the study visit. […]

[2] = system: patients with Becker muscular dystrophy (BMD); test: Functional sympatholysis: LBNP-induced decrease in forearm muscle oxygenation (NIR spectroscopy) at rest vs handgrip, tadalafil acute crossover trial; assay type: in vivo, human
Procedure: Forearm muscle oxygenation was measured with near-infrared (NIR) spectroscopy, which is based on the principle that laser light with wavelengths in the 700-900 nm range easily penetrates skeletal muscle, and is absorbed by the iron-porphyrin moieties in hemoglobin and myoglobin. Changes in NIR light absorption are proportional to changes in the relative concentrations of oxygenated hemoglobin and myoglobin (HbO2 and MbO2). Because of their nearly identical absorption spectra, individual contributions of HbO2 and MbO2 cannot be determined. The NIR signals reflect changes in oxygenation occurring mainly in the microvasculature, because vessels greater than one millimeter in diameter are maximal absorbers of photons due to the high extinction coefficient of blood. Thus, NIR spectroscopy provides continuous measurement of the adequacy of tissue oxygen delivery relative to its use. […] Changes in forearm tissue oxygenation were expressed as a percentage of […] exercise was performed using a dynamometer ([…] Dynamometer modified by Stoelting, Wood Dale, Ill.). […] The pressure in the chamber was measured by a Statham transducer (Gould Inc., Oxnard, Calif.). […] Reflex vasoconstriction was measured as the LBNP-induced decrease in forearm muscle oxygenation by NIR spectroscopy; this approach provides a valid measure of reflex neurogenic vasoconstriction under these conditions (13). The BP, heart rate, handgrip force, and NIR signals were recorded in response to two minutes of LBNP applied at rest and during the third to fifth minutes of the seven-minute exercise period. […] Patients were queried about potential tadalafil-specific side-effects both for safety monitoring and to assess whether blinding was maintained. tadalafil blood levels were measured using high performance liquid chromatography/tandem mass spectrometry (NMS Labs Willow Grove, Pa.). […] Exercise-induced attenuation of reflex vasoconstriction (functional sympatholysis) was assessed by comparing the LBNP-induced AHbO2+MbO2 (% TLS) at rest vs. the LBNP-induced decrease in AHbO2+MbO2 during handgrip. […]

[3] = 0.5 mg/kg oral, analysis of 10 of the 12 boys
[4] = 0.5 mg/kg oral, analysis using all 12 boys
[5] = 1.0 mg/kg oral, analysis of 10 of the 12 boys
[6] = 1.0 mg/kg oral, analysis using all 12 boys

Compound: CN1CC(=O)N2[C@H](c3ccc4c(c3)OCO4)c3[nH]c4ccccc4c3C[C@@H]2C1=O [tadalafil]
- attenuation of the reflex decrease in muscle oxygenation during handgrip [1, 3]: 45±8%
- attenuation of the reflex decrease in muscle oxygenation during handgrip ([1]; 0.5 mg/kg oral, analysis using all 12 boys (NIR in 10)): 57±16%
- LBNP-induced ΔHbO2+MbO2 (% TLS) at rest [1, 3]: −20±2%
- LBNP-induced ΔHbO2+MbO2 (% TLS) at rest [1, 4]: −20±2%
- LBNP-induced ΔHbO2+MbO2 (% TLS) during handgrip [1, 3]: −11±1%
- LBNP-induced ΔHbO2+MbO2 (% TLS) during handgrip [1, 4]: −9±3%
- attenuation of the reflex decrease in muscle oxygenation during handgrip [1, 5]: 63±5%
- attenuation of the reflex decrease in muscle oxygenation during handgrip ([1]; 1.0 mg/kg oral, analysis using all 12 boys (NIR in 10)): 80±11%
- LBNP-induced ΔHbO2+MbO2 (% TLS) at rest [1, 5]: −17±1%
- LBNP-induced ΔHbO2+MbO2 (% TLS) at rest [1, 6]: −16±2%
- LBNP-induced ΔHbO2+MbO2 (% TLS) during handgrip [1, 5]: −7±1%
- LBNP-induced ΔHbO2+MbO2 (% TLS) during handgrip [1, 6]: −4±2%
- attenuation of the reflex (LBNP) decrease in muscle oxygenation during handgrip ([2]; 10 BMD patients, single 20 mg oral tadalafil, >=3 h after dose): 52±12%
- LBNP-induced ΔHbO2+MbO2 (% TLS) at rest ([2]; BMD patients, 20 mg tadalafil, at rest): −17±2%
- LBNP-induced ΔHbO2+MbO2 (% TLS) during handgrip ([2]; BMD patients, 20 mg tadalafil, during handgrip 20% MVC): −9±2%
